Experimental data published in ChEMBL document CHEMBL1250536, “Identification of small molecule inhibitors of telomerase activity through transcriptional regulation of hTERT and calcium induction pathway in human lung adenocarcinoma A549 cells” (2010).
Activity calls are given as the source filed them. No cut-off for these calls is given here.

How the values were obtained:
[1] = target: Telomerase reverse transcriptase (Homo sapiens) (UniProt O14746); test: Inhibition of telomerase in human A549 cells at 25 uM after 24 hrs by TRAP assay; type: cell-based
A549 [2] = test: Reduction of hTERT protein expression in human A549 cells after 6 hrs by Western blotting; type: functional, cell-based
[3] = target: Telomerase reverse transcriptase (Homo sapiens) (UniProt O14746); test: Inhibition of telomerase in human A549 cells at 25 uM after 24 hrs by TRAP assay in presence of 20 nM of nuclear export inhibitor leptomycin B pretreated for 1 hr; type: cell-based
A549 [4] = test: Reduction of colony formation in human A549 cells at 6.25 uM after 24 hrs by anchorage-independence cell growth assay relative to control; type: functional; parameters: scale not given: the % may be the effect or the level left
A549 [5] = test: Reduction of hTERT protein expression in human A549 cells at 25 uM after 24 hrs by immunofluorescence assay in presence of intracellular calcium chelator BAPTA-AM pretreated for 1 hr; type: functional, cell-based
A549 [6] = test: Reduction of hTERT mRNA expression in human A549 cells after 6 hrs by RT-PCR analysis in presence of 20 uM of intracellular calcium chelator BAPTA-AM pretreated for 1 hr; type: functional, cell-based
A549 [7] = test: Reduction of hTERT protein expression in human A549 cells at 25 uM after 24 hrs by immunofluorescence assay; type: functional, cell-based
A549 [8] = test: Reduction of colony formation in human A549 cells at 25 uM after 24 hrs by anchorage-independence cell growth assay relative to control; type: functional; parameters: scale not given: the % may be the effect or the level left
A549 [9] = test: Reduction of hTR mRNA expression in human A549 cells at 20 uM after 6 hrs by RT-PCR analysis; type: functional, cell-based
[10] = target: Telomerase reverse transcriptase (Homo sapiens) (UniProt O14746); test: Inhibition of telomerase in human A549 cells at 25 uM after 24 hrs by TRAP assay in presence of 50 uM of MAPK inhibitor SB-203580 pretreated for 1 hr; type: cell-based
A549 [11] = test: Reduction of hTR mRNA expression in human A549 cells at up to 50 uM after 6 hrs by RT-PCR analysis; type: functional, cell-based
A549 [12] = test: Translocation of hTERT from nuclei to cytoplasm in human A549 cells at 25 uM after 24 hrs by immunofluorescence assay; type: functional, cell-based
[13] = target: Telomerase reverse transcriptase (Homo sapiens) (UniProt O14746); test: Inhibition of telomerase in human A549 cells after 24 hrs by TRAP assay; type: cell-based
[14] = target: Telomerase reverse transcriptase (Homo sapiens) (UniProt O14746); test: Inhibition of telomerase in human A549 cells at 25 uM after 24 hrs by TRAP assay in presence of 20 uM of 26S proteasome inhibitor MG132 pretreated for 1 hr; type: cell-based
[15] = target: Telomerase reverse transcriptase (Homo sapiens) (UniProt O14746); test: Inhibition of telomerase in human A549 cells at 25 uM after 24 hrs by TRAP assay in presence of 20 uM of ERK inhibitor PD-98059 pretreated for 1 hr; type: cell-based
[16] = target: Telomerase reverse transcriptase (Homo sapiens) (UniProt O14746); test: Inhibition of telomerase in human A549 cells at 25 uM by TRAP assay; type: cell-based; conditions: TDE = time-dependent effect
[17] = target: Telomerase reverse transcriptase (Homo sapiens) (UniProt O14746); test: Inhibition of telomerase in human A549 cells assessed as increase of intracellular calcium release after 24 hrs using Fluo-3 AM staining by microscopic analysis in presence of BAPTA-AM pretreated for 1 hr; type: cell-based
A549 [18] = test: Cytotoxicity against human A549 cells assessed as reduction of cell proliferation at 50 uM after 24 hrs by MTS assay; type: functional; parameters: scale not given: the % may be the effect or the level left
A549 [19] = test: Reduction of hTERT mRNA expression in human A549 cells at 50 uM after 6 hrs by RT-PCR analysis; type: functional; parameters: scale not given: the % may be the effect or the level left
[20] = target: Telomerase reverse transcriptase (Homo sapiens) (UniProt O14746); test: Inhibition of telomerase in human A549 cells at 25 uM after 24 hrs by TRAP assay in presence of 20 uM of intracellular calcium chelator BAPTA-AM pretreated for 1 hr; type: cell-based
A549 [21] = test: Reduction of hTERT mRNA expression in human A549 cells after 6 hrs by RT-PCR analysis; type: functional, cell-based
A549 [22] = test: Cytotoxicity against human A549 cells assessed as reduction of cell proliferation after 24 hrs by MTS assay; type: functional, cell-based
A549 [23] = test: Reduction of colony formation in human A549 cells at 12.5 uM after 24 hrs by anchorage-independence cell growth assay relative to control; type: functional; parameters: scale not given: the % may be the effect or the level left
[24] = target: Telomerase reverse transcriptase (Homo sapiens) (UniProt O14746); test: Inhibition of telomerase in human A549 cells assessed as increase of intracellular calcium release after 24 hrs using Fluo-3 AM staining by microscopic analysis; type: cell-based
[25] = target: Telomerase reverse transcriptase (Homo sapiens) (UniProt O14746); test: Inhibition of telomerase in human A549 cells at 25 uM after 24 hrs by TRAP assay in presence of 50 uM of PI3 K inhibitor LY-294002 pretreated for 1 hr; type: cell-based
A549 [26] = test: Reduction of GADD153 mRNA expression in human A549 cells at up to 50 uM after 6 hrs by RT-PCR analysis; type: functional, cell-based
[27] = target: Telomerase reverse transcriptase (Homo sapiens) (UniProt O14746); test: Inhibition of telomerase in human A549 cells at 25 uM after 24 hrs by TRAP assay in presence of 10 uM of MEK inhibitor U0126 pretreated for 1 hr; type: cell-based

Telomerase reverse transcriptase (Homo sapiens), sequence (O14746 whole entry): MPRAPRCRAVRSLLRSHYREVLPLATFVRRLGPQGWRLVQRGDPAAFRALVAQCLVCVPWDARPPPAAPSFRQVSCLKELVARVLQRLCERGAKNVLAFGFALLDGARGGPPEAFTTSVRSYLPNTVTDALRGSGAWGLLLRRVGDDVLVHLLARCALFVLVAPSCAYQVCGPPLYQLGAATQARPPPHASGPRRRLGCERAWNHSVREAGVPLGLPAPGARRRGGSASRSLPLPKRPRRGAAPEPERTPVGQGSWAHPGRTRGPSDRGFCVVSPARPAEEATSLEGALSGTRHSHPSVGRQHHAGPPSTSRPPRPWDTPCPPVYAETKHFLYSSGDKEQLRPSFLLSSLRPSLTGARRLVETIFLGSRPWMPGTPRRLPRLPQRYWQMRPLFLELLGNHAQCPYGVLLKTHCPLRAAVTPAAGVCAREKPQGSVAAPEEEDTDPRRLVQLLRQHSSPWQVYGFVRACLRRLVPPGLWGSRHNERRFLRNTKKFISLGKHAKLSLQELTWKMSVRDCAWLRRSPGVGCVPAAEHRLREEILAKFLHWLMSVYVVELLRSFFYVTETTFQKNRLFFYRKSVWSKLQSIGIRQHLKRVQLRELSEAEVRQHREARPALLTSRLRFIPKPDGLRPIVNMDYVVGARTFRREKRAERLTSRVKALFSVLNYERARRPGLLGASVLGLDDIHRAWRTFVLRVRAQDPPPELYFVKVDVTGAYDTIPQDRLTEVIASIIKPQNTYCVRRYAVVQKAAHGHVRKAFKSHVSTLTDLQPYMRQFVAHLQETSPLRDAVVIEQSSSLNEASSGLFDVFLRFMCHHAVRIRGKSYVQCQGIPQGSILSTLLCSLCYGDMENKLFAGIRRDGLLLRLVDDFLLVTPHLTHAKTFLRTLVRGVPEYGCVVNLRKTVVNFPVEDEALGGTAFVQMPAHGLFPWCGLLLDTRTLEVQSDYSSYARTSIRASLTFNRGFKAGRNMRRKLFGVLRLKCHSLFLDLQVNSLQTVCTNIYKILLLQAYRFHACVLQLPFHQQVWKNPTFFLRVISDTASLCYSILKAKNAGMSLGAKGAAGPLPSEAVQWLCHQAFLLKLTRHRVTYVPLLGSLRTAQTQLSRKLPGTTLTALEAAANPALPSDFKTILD

COc1cc(/C=C/C(=O)c2cc(OC)c(OC)c(OC)c2)cc(OC)c1OC
inhibition [1]: Active

COc1c(O)cc(C(=O)O)cc1O
inhibition [1]: inactive

COc1ccc(/C=C/C(=O)c2cc(OC)c(OC)c(OC)c2)cc1OC
inhibition [1]: Active

COc1cc(OC)c2c(c1)O[C@H](c1ccccc1)CC2=O
inhibition [1]: inactive

C[C@H]1O[C@H](Oc2cc(O)c3c(=O)c(O[C@H]4O[C@H](C)[C@@H](O[C@H]5O[C@H](CO)[C@@H](O)[C@H](O)[C@H]5O)[C@H](O)[C@@H]4O)c(-c4ccc(O)cc4)oc3c2)[C@@H](O)[C@@H](O)[C@@H]1O
inhibition [1]: inactive

COC[C@H](Cc1ccc(OC)c(OC)c1)[C@H](COC)Cc1ccc(OC)c(OC)c1
inhibition [1]: inactive

COc1cc(O)c(C(=O)/C=C/c2cccc(OC)c2OC)c(OC)c1
Activity (A549 [2]): Dose-dependent effect
inhibition [3]: Active
Activity (A549 [4]): 23%
Activity (A549 [5]): inactive
Activity (A549 [6]): inactive
Activity (A549 [7]): Active
Activity (A549 [8]): 70%
Activity (A549 [9]): inactive
inhibition [10]: Active
Activity (A549 [11]): inactive
Activity (A549 [12]): inactive
inhibition [13]: Dose-dependent effect
inhibition [14]: Active
inhibition [15]: Active
inhibition [16]: tde
inhibition [17]: inactive
Activity (A549 [18]): 59%
Activity (A549 [19]): 92%
inhibition [20]: inactive
inhibition [1]: Active
Activity (A549 [21]): Dose-dependent effect
Activity (A549 [22]): Dose-dependent effect
Activity (A549 [23]): 96%
inhibition [24]: Dose-dependent effect
inhibition [25]: Active
Activity (A549 [26]): inactive
inhibition [27]: Active

COc1cc(O)c2c(c1OC)O[C@H](c1ccccc1)CC2=O
inhibition [1]: inactive

COc1cccc(/C=C/C(=O)c2cc(OC)c(OC)c(OC)c2)c1OC
inhibition [1]: Active

COc1cc(C(=O)/C=C/c2ccc(N(C)C)cc2)cc(OC)c1OC
inhibition [1]: inactive

COc1ccc(/C=C2/COc3cc(O)ccc3C2=O)cc1
inhibition [1]: Active
